# Experiment: Residual curcumin during simulated shelf life, absorbance at 415 nm
# Format: physicochemical
# Conditions: over a period of 11 days, with respect to time 0
# Protocol: FIG. 3. Is a graph depicting the SBP protective effect. Residual percentage of curcumin (with respect to time 0) during simulated shelf life, without and with protection by SBP. Curcumin was determined by absorbance at 415 nm (maximal absorbance of curcumin) as determined by a UV-Visible light spectrophotometer.
compound,measurement,value
COc1cc(/C=C/C(=O)CC(=O)/C=C/c2ccc(O)c(OC)c2)ccc1O [curcumin],decrease of curcumin during simulated shelf life,approximately 40%

# Source: US10064888B2, “Pectin based nanoparticles” (TECHNION RESEARCH & DEVELOPMENT FOUNDATION LTD., priority 2013, dated 2018)
